Results from PubChem BioAssay (NCI).
Values joined by “and” are separate entries in the source; they are usually repeats but may differ in a detail not shown here. Equal values may be shown once.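 Values below derive from 48-hour exposures of cells grown in 96-well plates, with endpoints linearly interpolated between the two concentrations bracketing the appropriate inhibition level. GI50: concentration for 50% inhibition of growth. TGI is the concentration that stops growth completely.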

Columns and labels:
Assay in all cases: inhibition of tumour cell growth, NCI panel, 48 h
[1] = test system: CAKI-1 renal
[2] = test system: LOX IMVI melanoma
[3] = test system: MALME-3M melanoma
[4] = test system: NCI-H23 lung
[5] = test system: NCI-H522 lung
[6] = test system: PC-3 prostate
[7] = test system: SNB-75 CNS
[8] = test system: TK-10 renal
[9] = test system: UACC-257 melanoma
[10] = test system: SK-MEL-28 melanoma
[11] = test system: SN12C renal

| SMILES | TGI [1] [µM] | TGI [2] [µM] | TGI [3] [µM] | TGI [4] [µM] | TGI [5] | TGI [6] [µM] | TGI [7] [µM] | TGI [8] [µM] | TGI [9] [µM] | TGI [10] [µM] | TGI [11] [µM] | GI50 [1] [µM] | GI50 [2] [µM] | GI50 [5] [µM] | GI50 [9] [µM] | GI50 [4] [µM] | GI50 [11] [µM] | GI50 [8] [µM] |
| --- | --- | --- | --- | --- | --- | --- | --- | --- | --- | --- | --- | --- | --- | --- | --- | --- | --- | --- |
| CCOC(=O)c1cn2c(n1)sc1cccc(C)c12 | > 100 | > 100 | > 100 | > 100 | > 100 µM | > 100 | > 100 | > 100 | > 100 | – | – | – | – | – | – | – | – | – |
| COC(CCC[N+](C)(C)C)CC[N+](C)(C)C (stereo not drawn) | > 100 | – | > 100 | > 100 | > 100 µM | > 100 | > 100 | > 100 | > 100 | > 100 | > 100 | – | – | – | – | – | – | – |
| COc1cc(C(=O)N(C(=S)OCc2ccccn2)c2ccccc2)cc(OC)c1OC | > 100 | > 100 | 62 | > 100 | – | > 100 | – | > 100 | > 100 | > 100 | > 100 | – | – | – | – | – | – | – |
| CCCCCCCCCCCCCCNC(=O)CCC(NC(=O)c1ccc(N(C)Cc2cnc3nc(N)nc(N)c3n2)cc1)C(=O)NCCCCCCCCCCCCCC (stereo not drawn) | > 100 | > 100 | – | 20.8 | 32.4 µM | 22.5 | 34.8 | > 86.2 | 35.4 | 40.7 | 33.8 | – | – | – | – | – | – | – |
| CCC(C(=O)O)c1ccc(OC)cc1 (stereo not drawn) | > 100 | > 100 | > 100 | > 100 | > 100 µM | – | > 100 | > 100 | > 100 | > 100 | > 100 | – | – | – | – | – | – | – |
| Nc1nc(Cl)cc(NCC2(CO)CC(=O)C2)n1 | > 100 | > 100 | > 100 | > 100 | > 100 µM | > 100 | – | > 100 | > 100 | > 100 | > 100 | – | – | – | – | – | – | – |
| COc1ccc(N/N=C2\CCOc3ccc(C)cc3C2=O)cc1 | > 100 | 30.9 | 38.7 | – | > 100 µM | > 100 | – | > 100 | 54.6 | > 100 | > 100 | – | – | – | – | – | – | – |
| NC(N)=N/N=C/c1c(-c2ccc(N)cc2)nc2sccn12 | > 100 | > 100 | > 100 | 95.2 | 76 µM | 58.7 | – | 40.9 | > 100 | > 100 | 48.7 | – | – | – | – | – | – | – |
| CO/C(=N\N=C\c1ccc(C(F)(F)F)cc1)c1ccncc1 | > 10 | > 10 | > 10 | > 10 | > 10 µM | > 10 | – | > 10 | > 10 | – | > 10 | – | – | – | – | – | – | – |
| Cc1c(O)c(O)cc[n+]1C1OC(CO)C(O)C1O (stereo not drawn) | > 100 | > 100 | > 100 | > 100 | > 100 µM | – | > 100 | > 100 | > 100 | > 100 | > 100 | – | – | – | – | – | – | – |
| CC1CCC(n2c3cnccc3c3cnc(Nc4ccc5c(n4)CCN(C(=O)CO)C5)nc32)CC1 (stereo not drawn) | > 100 | > 100 | – | – | > 100 µM | – | – | – | > 100 | – | – | 0.536 | 0.496 | > 100 | > 100 | – | – | – |
| Nn1c(-c2ccccc2)nn(C(=O)c2ccccc2)c1=O | – | > 100 | > 100 | > 100 | > 100 µM | > 100 | > 100 | > 100 | > 100 | > 100 | > 100 | – | – | – | – | – | – | – |
| O=C(NC(=O)c1ccccc1[N+](=O)[O-])Nc1ccc(Oc2ncc(Br)cn2)c(Cl)c1 | – | > 100 | 0.0537 | – | 0.0378 µM and 0.198 µM | – | – | – | 0.0434 | 0.0733 | – | – | < 0.0208 | – | – | < 0.0209 | < 0.027 | 10.5 |
| ClCCN1CCC2(CC1)SSC1(CCN(CCCl)CC1)S2 | 33.4 | > 100 | 73.6 | > 100 | – | > 100 | > 100 | 95.5 | > 100 | > 100 | 72.8 | – | – | – | – | – | – | – |
| C1CN(c2nc3c(nnc4nc(N5CCOCC5)sc43)s2)CCO1 | > 100 | > 100 | > 100 | > 100 | > 100 µM | > 100 | – | > 100 | > 100 | > 100 | > 100 | – | – | – | – | – | – | – |
| C1=C2/CC[C@H](Sc3ccccc3)C2C2(CCCCC/1)OCCO2 (stereo partly drawn) | – | 28.9 | 55.2 | 63.3 | – | – | 88.2 | > 100 | 45.2 | > 100 | > 100 | – | – | – | – | – | – | – |
| CCCCC#C[I+]c1ccccc1 | 27.1 | 26.9 | 28.2 | 27.3 | 15.5 µM | – | 30.1 | 28.6 | 30.8 | 31.8 | 28.3 | – | – | – | – | – | – | – |
| O=c1c2cc([N+](=O)[O-])cnc2sn1-c1ccc([N+](=O)[O-])cc1 | – | 49.4 | 53 | > 100 | 25.7 µM | 83.8 | > 100 | > 100 | > 100 | > 100 | > 100 | – | – | – | – | – | – | – |
| COc1ccc(C2CC(c3c(O)ccc4ccccc34)=NN2C(C)=O)cc1OC (stereo not drawn) | > 100 | – | 92.1 | 79 | > 100 µM | > 100 | > 100 | > 100 | > 100 | > 100 | > 100 | – | – | – | – | – | – | – |
| COc1ccc2cc(NC(=O)N/N=C\c3ccc([N+](=O)[O-])cc3)ccc2c1 | > 100 | > 100 | > 100 | 77.9 | 51 µM | > 100 | 65.4 | – | > 100 | > 100 | > 100 | – | – | – | – | – | – | – |
| C[C@@H]1CC[C@]2(C(=O)O)CC[C@]3(C)C(=CC[C@@H]4[C@@]5(C)CC[C@H](O)C(C)(C)[C@@H]5CC[C@]43C)[C@@H]2[C@]1(C)O | 27.3 | 29.5 | 25.7 | 35.9 | 27.9 µM | – | 28.1 | 27.5 | 19.8 | 26.9 | 30.1 | – | – | – | – | – | – | – |
| CC(C)(C)OC(=O)N[C@H]1CCN(C2CCCCC2)C1=O | – | > 100 | – | > 100 | – | > 100 | > 100 | > 100 | – | > 100 | > 100 | – | – | – | – | – | – | – |
